Results from patent EP3409278B1, “HETEROCYCLIC PROTEIN KINASE INHIBITORS” (Tolero Pharmaceuticals, Inc., priority 2011, dated 2013).

Experiments:
MV-4-11 (FLT3-ITD) = test: MV-4-11 mouse xenograft study; format: in vivo; conditions: MV-4-11 xenografts (FLT3-ITD)
Description: (§1) Male and female Nu/Nu mice were purchased from Harlan Sprague Dawley (Indianapolis, IN). Female Nu/Nu mice were used for all xenograft evaluations with the exception of the PC-3 xenografts where male Nu/Nu mice were used. Cell lines were expanded In vitro in complete media, and if adherent were harvested by trypsin-EDTA, centrifuged and resuspended in PBS 1:1 with Matrigel (BD Bioscienes). Cells were inoculated subcutaneously in the right hind flank of mice. When tumors reached 100-200 mm^3 by caliper measurement, mice were randomized and dosing of SGI-9481 or vehicle control began and continued every day for 5 days (QDx5) with 2 days off for 18-21 days. Tumor volumes and body weights were determined twice a week, and tumor weights were measured at the completion of the translational xenograft studies.

[1] = test system: ML-2 cells (wild-type FLT3); test: ML-2 mouse xenograft study; format: in vivo; conditions: ML-2 xenografts (wild-type FLT3)
Description: as §1

UM-UC-3 = test: Established UM-UC-3 mouse xenograft tumors; format: in vivo
Description: as §1

22RV1/PIM-1 = 22RV1/PIM-1 over-expression tumor xenograft; format: in vivo, mouse
Description: as §1
(§2) . The prostate cancer cell line 22RV1 engineered to over-express PIM-1 as previously described (Mumenthaler, et al, Mol. Cancer Ther., 2009, 8(10)2882-93) was evaluated in vivo. A second model engineered to over-express PIM-2 was established using the NIH-3T3 mouse fibroblast cell line. […]. […].

[2] = test system: phosphatidyl inositol-3-kinase (PI3K) family; test: Selectivity study; format: biochemical; conditions: data not given
UM-UC-3 cells = test: Colony formation assay, UM-UC-3; format: cell-based
Experimental: (§3) For shRNA growth experiments, 500 UM-UC-3 cells were seeded in a 12-well plate 48 hours post-transduction and cultured for 8-10 days at 37°C in 5% CO2. Cells were fixed with 4% paraformaldehyde in PBS, washed twice with PBS, and stained with a crystal violet solution (1% crystal violet, 10% ethanol in water). Stained cells were washed thrice with water, and imaged after drying on a GelCount colony counter (Oxford Optronix Ltd., Oxford, UK). Total staining intensity per well was determined by lysis of cells with 200 µl of Triton X-100 lysis buffer (1% Triton X-100, 50 mM Tris-HCl pH 7.4, 150 mM NaCl, 1 mM EDTA). Lysates (100 µl) from each well were transferred to a clear 96-well plate and absorbance at 560 nm was determined on an Envision microplate reader. IC50 values were determined using GraphPad Prism software. For compound treated PC-3 and UM-UC-3, cells were seeded and stained as above, but were incubated with various concentrations of test compound or DMSO one day after seeding.
(§4) Translational models were also explored for PIM dependency using shRNA knockdown. The UM-UC-3 urinary epithelial bladder carcinoma cell line was used to verify and validate dependency on PIM-1 for growth.

PC-3 cells = test: Colony formation assay, PC-3; format: cell-based
Experimental: as §3, §4

PC-3 = test: Established PC-3 mouse xenograft tumors; format: in vivo
Description: as §1

NIH-3T3/PIM-2 = NIH-3T3/PIM-2 over-expression tumor xenograft; format: in vivo, mouse
Description: as §1, §2

[3] = 125 mg/kg, less than with 200 mg/kg

CC(C)(O)[C@H]1CC[C@H](Nc2ccc3ncc(-c4cccc(C(F)(F)F)c4)n3n2)CC1 [8-31]
effect on established xenografts (MV-4-11 (FLT3-ITD)): induced regressions
tumor growth inhibition [1]: significant tumor growth inhibition
tumor growth inhibition (UM-UC-3; [3]): significant tumor growth inhibition
body weight or gross adverse toxicity (UM-UC-3; oral dosing of 200 mg/kg): no significant changes in body weight or gross adverse toxicity
tumor growth measured by volume (caliper) and by final tumor weight (UM-UC-3; oral dosing of 200 mg/kg): significantly reduced
subcutaneous tumor growth (22RV1/PIM-1; 22RV1/PIM-1 + compound vs. 22RV1/PIM-1 + vehicle): significantly reduced
body weight (22RV1/PIM-1; 22RV1/PIM-1 xenograft mice): No significant changes in body weight
inhibitory activity against multiple members of the PI3K family [2]: inhibitory activity
colony growth (UM-UC-3 cells): reduced colony growth
colony growth (PC-3 cells): reduced colony growth
tumor growth inhibition (PC-3; [3]): significant tumor growth inhibition
plasma and tumor tissue levels (PC-3; PC-3 tumor-burdened mice, 200 mg/kg): above the in vitro proliferation EC50
body weight or gross adverse toxicity (PC-3; oral dosing of 200 mg/kg): no significant changes in body weight or gross adverse toxicity
tumor growth measured by volume (caliper) and by final tumor weight (PC-3; oral dosing of 200 mg/kg): significantly reduced
subcutaneous tumor growth (NIH-3T3/PIM-2; NIH-3T3/PIM-2 + compound vs. NIH-3T3/PIM-2 + vehicle): significantly inhibited
body weight (NIH-3T3/PIM-2; NIH-3T3/PIM-2 xenograft mice): No significant changes in body weight
